From patent US9290478B2, “Substituted quinoxalines as FGFR kinase inhibitors” (ASTEX THERAPEUTICS LTD, priority 2010, dated 2016)

Columns and labels:
[1] = biological target: T1, Ba/F3-FGFR3-transfected cells (Homo sapiens, UniProt P22607); assay: Ba/F3-FGFR3 (minus IL3 or plus IL3) cellular proliferation assay; type: cell-based; settings: minus IL3
T1 construct: BAF3-FGFR3 (MIN IL3) pIC50; other: minus IL3
Description: (§1) Ba/F3-FGFR3 (Minus IL3 or Plus IL3) (Cellular Proliferation Assay)
(§2) In a 384 well plate, 100 nI of compound dilution in DMSO was sprayed before adding 50 μl cell culture medium (phenol red free RPMI-1640, 10% FBS, 2 mM L-Glutamine and 50 μg/ml Gentamycin) containing 20000 cells per well of Ba/F3-FGFR3-transfected cells. Cells were put in an incubator at 37° C. and 5% CO2. After 24 hours, 10 μl of Alamar Blue solution (0.5 mM K3Fe(CN)6, 0.5 mM K4Fe(CN)6, 0.15 mM Resazurin and 100 mM Phosphate Buffer) was added to the wells, incubated for 4 hours at 37° C. and 5% CO2 before RFU's (Relative Fluorescence Units) (ex. 540 nm., em. 590 nm.) were measured in a fluororescence plate reader.
(§3) In this assay, the inhibitory effect of different compound concentrations (range 10 μM to 0.1 nM) was determined and used to calculate an IC50 (M) and pIC50 (−log IC50) value. As a counterscreen the same experiment was performed in the presence of 10 ng/ml murine IL3.

[2] = system: Ba/F3-FGFR3-transfected cells; assay: as above; type: cell-based; settings: 24 h; plus 10 ng/ml murine IL3 (counterscreen); read-out: BAF3-FGFR3 (PLUS IL3) pIC50 (converted)
Description: as §1, §2, §3

[3] = system: Ba/F3-FGFR1-transfected cells; assay: Ba/F3-FGFR1 (minus IL3 or plus IL3) cellular proliferation assay; type: cell-based; settings: 24 h; plus 10 ng/ml murine IL3 (counterscreen); read-out: BAF3-FGFR1 (PLUS IL3) pIC50 (converted)
Description: (§4) Ba/F3-FGFR1 (Minus IL3 or Plus IL3) (Cellular Proliferation Assay)
as §2, with “nl” for “nI”, “Ba/F3-FGFR1-transfected” for “Ba/F3-FGFR3-transfected”
(§5) In this assay, the inhibitory effect of different compound concentrations (range 10 μM to 0.1 nM) was determined and used to calculate an IC50 (M) and pIC50 (−log IC50) value.
(§6) As a counterscreen the same experiment was performed in the presence of 10 ng/ml murine IL3.

[4] = biological target: T2, Ba/F3-FGFR1-transfected cells (Homo sapiens, UniProt P11362); assay: as above; type: cell-based; settings: minus IL3
T2 construct: BAF3-FGFR1 (MIN IL3) pIC50; other: minus IL3
Description: as §4
as §2, with “nl” for “nI”, “Ba/F3-FGFR1-transfected” for “Ba/F3-FGFR3-transfected”
as §5, §6

FGFR1 (h) = FGFR1 (h) (Homo sapiens, UniProt P11362); assay: FGFR1 (enzymatic assay), TR-FRET; type: biochemical; settings: 5 μM ATP; read-out: FGFR1 pIC50 (converted)
Description: (§7) In a final reaction volume of 30 μL, FGFR1 (h) (25 ng/ml) was incubated with 50 mM HEPES pH 7.5, 6 mM MnCl2, 1 mM DTT, 0.1 mM Na3VO4, 0.01% Triton-X-100, 500 nM Btn-Flt3 and 5 μM ATP in the presence of compound (1% DMSO final). After incubation for 60 minutes at room temperature the reaction was stopped with 2.27 nM EU-anti P-Tyr, 7 mM EDTA, 31.25 nM SA-XL-665 and 0.02% BSA which was present for 60 minutes at room temperature. Time-Resolved Fluorescence Resonance Energy Transfer (TR-FRET) signal (ex340 nm. Em 620 nm, em 655 nm) was measured afterwards and results are expressed in RFU (Relative Fluorescence Units). In this assay, the inhibitory effect of different compound concentrations (range 10 μM to 0.1 nM) was determined and used to calculate an IC50 (M) and pIC50 (−log IC50) value.

[5] = biological target: T3, Ba/F3-KDR-transfected cells (Homo sapiens, UniProt P35968); assay: Ba/F3-KDR (minus IL3 or plus IL3) cellular proliferation assay; type: cell-based; settings: minus IL3
T3 construct: BAF3-KDR (MIN IL3) pIC50; other: minus IL3
Description: (§8) Ba/F3-KDR (Minus IL3 or Plus IL3) (Cellular Proliferation Assay)
as §2, with “Ba/F3-KDR-transfected” for “Ba/F3-FGFR3-transfected”
as §3

[6] = system: Ba/F3-KDR-transfected cells; assay: as above; type: cell-based; settings: 24 h; plus 10 ng/ml murine IL3 (counterscreen); read-out: BAF3-KDR (PLUS IL3) pIC50 (converted)
Description: as §8
as §2, with “Ba/F3-KDR-transfected” for “Ba/F3-FGFR3-transfected”
as §3

FGFR4 (h) = FGFR4 (h) (Homo sapiens, UniProt P22455); assay: FGFR4 (enzymatic assay), TR-FRET; type: biochemical; settings: 5 μM ATP; read-out: FGFR4 pIC50 (converted)
Description: as §7, with “FGFR4” for “FGFR1”, “(60” for “(25”

Sequence of FGFR4 (h) (P22455 22-802): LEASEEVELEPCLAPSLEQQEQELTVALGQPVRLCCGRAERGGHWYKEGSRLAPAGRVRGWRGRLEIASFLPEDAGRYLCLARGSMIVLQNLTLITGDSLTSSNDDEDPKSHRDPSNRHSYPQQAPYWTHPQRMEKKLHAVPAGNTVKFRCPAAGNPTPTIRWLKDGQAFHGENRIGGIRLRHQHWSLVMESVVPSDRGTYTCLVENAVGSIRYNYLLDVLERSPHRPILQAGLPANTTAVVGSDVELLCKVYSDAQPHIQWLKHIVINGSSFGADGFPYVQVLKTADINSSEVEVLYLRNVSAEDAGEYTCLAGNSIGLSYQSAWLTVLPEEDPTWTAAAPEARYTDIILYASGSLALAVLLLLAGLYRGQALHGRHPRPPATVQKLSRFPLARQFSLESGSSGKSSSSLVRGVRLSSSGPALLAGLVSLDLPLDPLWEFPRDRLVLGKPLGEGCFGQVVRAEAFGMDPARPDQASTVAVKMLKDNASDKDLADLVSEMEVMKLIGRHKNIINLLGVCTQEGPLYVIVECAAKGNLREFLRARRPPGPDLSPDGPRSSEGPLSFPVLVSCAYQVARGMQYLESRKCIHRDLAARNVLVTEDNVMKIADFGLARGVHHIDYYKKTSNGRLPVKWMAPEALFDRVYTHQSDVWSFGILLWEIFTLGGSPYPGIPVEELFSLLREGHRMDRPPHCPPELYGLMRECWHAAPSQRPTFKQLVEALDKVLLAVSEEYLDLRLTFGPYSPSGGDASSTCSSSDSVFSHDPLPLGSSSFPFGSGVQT
T3 sequence (P35968 whole entry, change not shown): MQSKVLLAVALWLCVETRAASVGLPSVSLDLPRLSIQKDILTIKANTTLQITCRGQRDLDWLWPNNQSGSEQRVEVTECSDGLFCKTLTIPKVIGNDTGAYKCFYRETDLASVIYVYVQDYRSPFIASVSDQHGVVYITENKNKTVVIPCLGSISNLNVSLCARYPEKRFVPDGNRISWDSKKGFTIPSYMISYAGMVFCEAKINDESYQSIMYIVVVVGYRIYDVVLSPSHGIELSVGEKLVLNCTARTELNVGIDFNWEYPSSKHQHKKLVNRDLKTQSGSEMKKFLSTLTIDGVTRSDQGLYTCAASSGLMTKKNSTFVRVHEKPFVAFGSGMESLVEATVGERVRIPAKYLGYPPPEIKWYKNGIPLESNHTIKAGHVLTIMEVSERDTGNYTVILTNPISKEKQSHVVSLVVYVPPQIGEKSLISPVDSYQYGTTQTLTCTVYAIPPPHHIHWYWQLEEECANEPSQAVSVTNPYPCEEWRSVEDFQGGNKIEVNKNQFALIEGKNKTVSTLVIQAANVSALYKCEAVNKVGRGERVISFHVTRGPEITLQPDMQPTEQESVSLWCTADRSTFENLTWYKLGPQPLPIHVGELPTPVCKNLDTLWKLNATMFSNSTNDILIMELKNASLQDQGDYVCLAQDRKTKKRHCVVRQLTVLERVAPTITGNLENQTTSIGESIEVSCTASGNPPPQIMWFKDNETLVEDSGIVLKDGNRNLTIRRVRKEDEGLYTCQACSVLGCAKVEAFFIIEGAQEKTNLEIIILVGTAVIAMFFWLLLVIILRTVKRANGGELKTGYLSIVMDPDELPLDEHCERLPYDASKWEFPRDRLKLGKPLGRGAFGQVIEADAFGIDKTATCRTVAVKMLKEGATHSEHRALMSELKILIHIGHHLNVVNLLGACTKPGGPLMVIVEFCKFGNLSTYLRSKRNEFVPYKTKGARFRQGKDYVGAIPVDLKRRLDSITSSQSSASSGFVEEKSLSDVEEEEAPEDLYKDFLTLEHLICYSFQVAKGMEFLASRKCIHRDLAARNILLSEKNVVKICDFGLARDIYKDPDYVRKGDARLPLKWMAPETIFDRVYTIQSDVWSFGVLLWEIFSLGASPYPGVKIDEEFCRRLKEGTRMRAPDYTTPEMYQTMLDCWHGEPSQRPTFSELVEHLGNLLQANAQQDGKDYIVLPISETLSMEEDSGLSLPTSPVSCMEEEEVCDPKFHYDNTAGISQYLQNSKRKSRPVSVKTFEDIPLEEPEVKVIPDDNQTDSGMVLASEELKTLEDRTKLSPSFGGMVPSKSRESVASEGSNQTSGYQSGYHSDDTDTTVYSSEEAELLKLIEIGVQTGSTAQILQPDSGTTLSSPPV
T2 sequence (P11362 whole entry, change not shown): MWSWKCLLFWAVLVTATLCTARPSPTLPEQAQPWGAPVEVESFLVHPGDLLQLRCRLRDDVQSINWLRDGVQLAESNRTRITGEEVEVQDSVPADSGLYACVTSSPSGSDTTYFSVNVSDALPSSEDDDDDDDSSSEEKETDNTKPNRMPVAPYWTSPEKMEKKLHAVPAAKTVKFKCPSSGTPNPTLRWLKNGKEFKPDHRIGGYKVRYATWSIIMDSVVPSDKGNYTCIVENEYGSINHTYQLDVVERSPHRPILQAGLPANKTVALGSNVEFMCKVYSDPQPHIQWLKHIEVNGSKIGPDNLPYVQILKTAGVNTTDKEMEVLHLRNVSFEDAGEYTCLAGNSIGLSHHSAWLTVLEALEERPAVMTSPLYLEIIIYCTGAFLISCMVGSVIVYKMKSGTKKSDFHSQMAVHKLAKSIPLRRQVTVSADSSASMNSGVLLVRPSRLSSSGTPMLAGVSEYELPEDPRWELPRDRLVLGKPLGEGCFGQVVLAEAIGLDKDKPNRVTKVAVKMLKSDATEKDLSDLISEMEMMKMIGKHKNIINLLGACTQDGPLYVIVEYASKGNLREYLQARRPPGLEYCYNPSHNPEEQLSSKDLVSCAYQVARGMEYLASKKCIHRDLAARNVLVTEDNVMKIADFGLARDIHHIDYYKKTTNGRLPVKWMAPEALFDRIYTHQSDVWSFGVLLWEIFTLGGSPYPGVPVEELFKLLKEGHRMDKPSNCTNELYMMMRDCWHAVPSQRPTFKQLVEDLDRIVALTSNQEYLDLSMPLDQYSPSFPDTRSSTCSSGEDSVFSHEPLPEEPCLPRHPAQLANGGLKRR
Sequence of FGFR1 (h) (P11362 22-822): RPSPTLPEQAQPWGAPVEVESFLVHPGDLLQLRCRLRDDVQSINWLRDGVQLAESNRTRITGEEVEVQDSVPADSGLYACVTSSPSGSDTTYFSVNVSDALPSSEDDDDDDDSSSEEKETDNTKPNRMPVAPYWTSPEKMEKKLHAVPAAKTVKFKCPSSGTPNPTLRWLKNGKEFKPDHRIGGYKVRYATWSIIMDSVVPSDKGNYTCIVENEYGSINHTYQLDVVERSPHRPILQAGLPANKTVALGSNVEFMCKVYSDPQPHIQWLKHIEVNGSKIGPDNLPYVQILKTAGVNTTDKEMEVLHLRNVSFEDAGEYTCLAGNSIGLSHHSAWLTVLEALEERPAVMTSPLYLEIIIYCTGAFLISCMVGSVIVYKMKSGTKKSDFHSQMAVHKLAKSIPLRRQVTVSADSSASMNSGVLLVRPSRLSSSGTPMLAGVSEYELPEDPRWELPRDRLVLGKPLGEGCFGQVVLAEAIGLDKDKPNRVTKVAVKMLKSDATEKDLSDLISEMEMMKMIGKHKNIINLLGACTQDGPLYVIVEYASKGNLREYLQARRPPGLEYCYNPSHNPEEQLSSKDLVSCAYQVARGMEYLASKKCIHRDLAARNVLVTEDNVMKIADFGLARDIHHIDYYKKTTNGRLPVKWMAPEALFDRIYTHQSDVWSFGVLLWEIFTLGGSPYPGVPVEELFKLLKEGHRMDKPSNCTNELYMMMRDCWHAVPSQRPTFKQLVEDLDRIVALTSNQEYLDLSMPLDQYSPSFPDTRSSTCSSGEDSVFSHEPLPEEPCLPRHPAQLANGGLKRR
T1 sequence (P22607 whole entry, change not shown): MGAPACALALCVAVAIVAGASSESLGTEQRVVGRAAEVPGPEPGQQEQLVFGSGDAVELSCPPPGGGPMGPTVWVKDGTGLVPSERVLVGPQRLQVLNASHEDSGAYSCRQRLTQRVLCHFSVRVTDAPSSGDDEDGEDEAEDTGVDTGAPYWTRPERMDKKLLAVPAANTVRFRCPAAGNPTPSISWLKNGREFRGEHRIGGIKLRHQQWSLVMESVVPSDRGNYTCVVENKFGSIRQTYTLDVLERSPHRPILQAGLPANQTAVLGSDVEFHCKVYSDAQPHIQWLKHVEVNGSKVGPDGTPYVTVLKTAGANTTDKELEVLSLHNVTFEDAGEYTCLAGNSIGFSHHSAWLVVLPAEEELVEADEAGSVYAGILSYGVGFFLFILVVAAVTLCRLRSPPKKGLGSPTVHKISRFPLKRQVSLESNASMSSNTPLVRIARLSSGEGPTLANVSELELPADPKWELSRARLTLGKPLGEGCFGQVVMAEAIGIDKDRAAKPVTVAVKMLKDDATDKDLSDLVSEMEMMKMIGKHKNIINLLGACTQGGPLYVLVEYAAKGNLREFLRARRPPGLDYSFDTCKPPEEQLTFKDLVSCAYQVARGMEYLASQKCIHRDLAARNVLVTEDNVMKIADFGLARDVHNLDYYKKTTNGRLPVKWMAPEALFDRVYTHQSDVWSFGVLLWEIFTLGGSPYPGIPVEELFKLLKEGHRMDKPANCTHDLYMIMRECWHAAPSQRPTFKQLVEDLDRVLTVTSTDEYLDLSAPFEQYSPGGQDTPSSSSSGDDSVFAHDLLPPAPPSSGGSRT

COc1cc(OC)cc(/C(=C\CN(C)C)c2ccc3ncc(-c4cnn(C)c4)nc3c2)c1 [Compound 10, {(Z)-3-(3,5-Dimethoxy-phenyl)-3-[3-(1-methyl-1H-pyrazol-4-yl)-quinoxalin-6-yl]-allyl}-dimethyl-amine]
BAF3-FGFR3 (MIN IL3) pIC50 [1]: 6.27
IC50 [2]: > 10000 nM
IC50 [3]: > 10000 nM
BAF3-FGFR1 (MIN IL3) pIC50 [4]: 5.81
IC50 (FGFR1 (h)): 17 nM
BAF3-KDR (MIN IL3) pIC50 [5]: <5
IC50 [6]: > 10000 nM
IC50 (FGFR4 (h)): 107 nM

COc1cc(OC)cc(/C(=C\CNCC(F)(F)F)c2ccc3ncc(-c4cnn(C)c4)nc3c2)c1 [Compound 14, {(Z)-3-(3,5-Dimethoxy-phenyl)-3-[3-(1-methyl-1H-pyrazol-4-yl)-quinoxalin-6-yl]-allyl}-(2,2,2-trifluoro-ethyl)-amine]
BAF3-FGFR3 (MIN IL3) pIC50 [1]: 6.39
IC50 [2]: > 10000 nM
IC50 [3]: > 10000 nM
BAF3-FGFR1 (MIN IL3) pIC50 [4]: 6.17
IC50 (FGFR1 (h)): 13.8 nM
BAF3-KDR (MIN IL3) pIC50 [5]: <5
IC50 [6]: > 10000 nM
IC50 (FGFR4 (h)): 28.8 nM

COc1cc(OC)cc(C(CC#N)c2ccc3ncc(-c4cnn(C)c4)nc3c2)c1 (stereo not drawn) [Compound 18]
BAF3-FGFR3 (MIN IL3) pIC50 [1]: 5.48
IC50 [2]: > 10000 nM
IC50 [3]: > 10000 nM
BAF3-FGFR1 (MIN IL3) pIC50 [4]: 5.6
IC50 (FGFR1 (h)): 72.4 nM
BAF3-KDR (MIN IL3) pIC50 [5]: <5
IC50 [6]: > 10000 nM
IC50 (FGFR4 (h)): 182 nM

COc1cc(OC)cc(C(CCN)c2ccc3ncc(-c4cnn(C)c4)nc3c2)c1.Cl (stereo not drawn) [Compound 20]
BAF3-FGFR3 (MIN IL3) pIC50 [1]: 6.04
IC50 [2]: > 10000 nM
IC50 [3]: > 10000 nM
BAF3-FGFR1 (MIN IL3) pIC50 [4]: 5.86
IC50 (FGFR1 (h)): 77.6 nM
BAF3-KDR (MIN IL3) pIC50 [5]: <5
IC50 [6]: > 10000 nM
IC50 (FGFR4 (h)): 447 nM

COc1cc(OC)cc(C(CCN(C)C)c2ccc3ncc(-c4cnn(C)c4)nc3c2)c1.Cl (stereo not drawn) [Compound 21]
BAF3-FGFR3 (MIN IL3) pIC50 [1]: 6.32
IC50 [2]: > 10000 nM
IC50 [3]: > 10000 nM
BAF3-FGFR1 (MIN IL3) pIC50 [4]: 5.95
IC50 (FGFR1 (h)): 37.2 nM
BAF3-KDR (MIN IL3) pIC50 [5]: <5
IC50 [6]: > 10000 nM
IC50 (FGFR4 (h)): 355 nM

COc1cc(OC)cc(C(CCO)c2ccc3ncc(-c4cnn(C)c4)nc3c2)c1 (stereo not drawn) [Compound 22]
BAF3-FGFR3 (MIN IL3) pIC50 [1]: 5.65
IC50 [2]: > 10000 nM
IC50 [3]: > 10000 nM
BAF3-FGFR1 (MIN IL3) pIC50 [4]: 5.66
IC50 (FGFR1 (h)): 107 nM
BAF3-KDR (MIN IL3) pIC50 [5]: <5
IC50 [6]: > 10000 nM
IC50 (FGFR4 (h)): 513 nM

COc1cc(OC)cc(C(CC(=O)NC(C)C)c2ccc3ncc(-c4cnn(C)c4)nc3c2)c1 (stereo not drawn) [Compound 23]
BAF3-FGFR3 (MIN IL3) pIC50 [1]: <5
IC50 [2]: > 10000 nM
IC50 [3]: > 10000 nM
BAF3-FGFR1 (MIN IL3) pIC50 [4]: <5
IC50 (FGFR1 (h)): > 1000 nM
BAF3-KDR (MIN IL3) pIC50 [5]: <5
IC50 [6]: > 10000 nM
IC50 (FGFR4 (h)): > 1000 nM

COc1cc(OC)cc(C(CC(C)(O)CNC(C)C)c2ccc3ncc(-c4cnn(C)c4)nc3c2)c1.Cl (stereo not drawn) [Compound 25]
BAF3-FGFR3 (MIN IL3) pIC50 [1]: 5.13
IC50 [2]: > 10000 nM
IC50 [3]: > 10000 nM
BAF3-FGFR1 (MIN IL3) pIC50 [4]: <5
IC50 (FGFR1 (h)): 794 nM
BAF3-KDR (MIN IL3) pIC50 [5]: <5
IC50 [6]: > 10000 nM
IC50 (FGFR4 (h)): > 1000 nM

Cn1cc(-c2cnc3ccc(C(O)c4ccccc4)cc3n2)cn1 (stereo not drawn) [Compound 28]
BAF3-FGFR3 (MIN IL3) pIC50 [1]: <5
IC50 [2]: > 10000 nM
IC50 [3]: > 10000 nM
BAF3-FGFR1 (MIN IL3) pIC50 [4]: <5
IC50 (FGFR1 (h)): ~1510 nM
BAF3-KDR (MIN IL3) pIC50 [5]: <5
IC50 [6]: > 10000 nM
IC50 (FGFR4 (h)): 8510 nM

COc1cc(OC)cc(C(CCNC(C)C)c2ccc3ncc(-c4cnn(C)c4)nc3c2)c1.Cl (stereo not drawn) [Compound 29, {3-(3,5-Dimethoxy-phenyl)-3-[3-(1-methyl-1H-pyrazol-4-yl)-quinoxalin-6-yl]-propyl}-isopropyl-amine]
BAF3-FGFR3 (MIN IL3) pIC50 [1]: 6.44
IC50 [2]: > 10000 nM
IC50 [3]: > 10000 nM
BAF3-FGFR1 (MIN IL3) pIC50 [4]: 6.18
IC50 (FGFR1 (h)): 22.9 nM
BAF3-KDR (MIN IL3) pIC50 [5]: <5
IC50 [6]: > 10000 nM
IC50 (FGFR4 (h)): 275 nM

COc1cc(OC)cc(C2(c3ccc4ncc(-c5cnn(C)c5)nc4c3)CC2)c1 [Compound 30]
BAF3-FGFR3 (MIN IL3) pIC50 [1]: 5.63
IC50 [2]: > 10000 nM
IC50 [3]: > 10000 nM
BAF3-FGFR1 (MIN IL3) pIC50 [4]: 5.23
IC50 (FGFR1 (h)): 91.2 nM
BAF3-KDR (MIN IL3) pIC50 [5]: <5
IC50 [6]: > 10000 nM
IC50 (FGFR4 (h)): 479 nM

COc1cc(OC)cc(C(CCNCC(F)(F)F)c2ccc3ncc(-c4cnn(C)c4)nc3c2)c1.Cl (stereo not drawn) [Compound 33]
BAF3-FGFR3 (MIN IL3) pIC50 [1]: ~5.11
IC50 [2]: > 10000 nM
IC50 [3]: > 10000 nM
BAF3-FGFR1 (MIN IL3) pIC50 [4]: 5.11
IC50 (FGFR1 (h)): 224 nM
BAF3-KDR (MIN IL3) pIC50 [5]: <5
IC50 [6]: > 10000 nM
IC50 (FGFR4 (h)): ~1000 nM

COc1cc(OC)cc(/C(=C/CN(C)C)c2ccc3ncc(-c4cnn(C)c4)nc3c2)c1 [Compound 34]
BAF3-FGFR3 (MIN IL3) pIC50 [1]: ~5.13
IC50 [2]: > 10000 nM
IC50 [3]: > 10000 nM
BAF3-FGFR1 (MIN IL3) pIC50 [4]: 5.08
IC50 (FGFR1 (h)): 132 nM
BAF3-KDR (MIN IL3) pIC50 [5]: <5
IC50 [6]: > 10000 nM
IC50 (FGFR4 (h)): > 1000 nM

CN(C)CCC(c1ccccc1)c1ccc2ncc(-c3cnn(C)c3)nc2c1 (stereo not drawn) [Compound 35]
BAF3-FGFR3 (MIN IL3) pIC50 [1]: <5
IC50 [2]: > 10000 nM
IC50 [3]: > 10000 nM
BAF3-FGFR1 (MIN IL3) pIC50 [4]: <5
IC50 (FGFR1 (h)): > 1000 nM
BAF3-KDR (MIN IL3) pIC50 [5]: <5
IC50 [6]: > 10000 nM
IC50 (FGFR4 (h)): > 1000 nM

COc1cc(OC)cc(C(CCCN)c2ccc3ncc(-c4cnn(C)c4)nc3c2)c1.Cl (stereo not drawn) [Compound 40]
BAF3-FGFR3 (MIN IL3) pIC50 [1]: 5.27
IC50 [2]: > 10000 nM
IC50 [3]: > 10000 nM
BAF3-FGFR1 (MIN IL3) pIC50 [4]: 5
IC50 (FGFR1 (h)): 490 nM
BAF3-KDR (MIN IL3) pIC50 [5]: <5
IC50 [6]: > 10000 nM
IC50 (FGFR4 (h)): > 1000 nM
